Assay results published in ChEMBL document CHEMBL4507268 (2021).

What was measured:
[1] = target: Tyrosine-protein kinase ABL1 (Homo sapiens) (UniProt P00519); conditions: Compound concentration 1000.0 nM
[2] = test system: Receptor-type tyrosine-protein kinase FLT3 (Homo sapiens), P36888 [R834Q]; conditions: Compound concentration 1000.0 nM
[3] = target: T1, Serine/threonine-protein kinase Nek1 (Homo sapiens) (UniProt Q96PY6); conditions: Compound concentration 1000.0 nM
T1 sequence (whole entry): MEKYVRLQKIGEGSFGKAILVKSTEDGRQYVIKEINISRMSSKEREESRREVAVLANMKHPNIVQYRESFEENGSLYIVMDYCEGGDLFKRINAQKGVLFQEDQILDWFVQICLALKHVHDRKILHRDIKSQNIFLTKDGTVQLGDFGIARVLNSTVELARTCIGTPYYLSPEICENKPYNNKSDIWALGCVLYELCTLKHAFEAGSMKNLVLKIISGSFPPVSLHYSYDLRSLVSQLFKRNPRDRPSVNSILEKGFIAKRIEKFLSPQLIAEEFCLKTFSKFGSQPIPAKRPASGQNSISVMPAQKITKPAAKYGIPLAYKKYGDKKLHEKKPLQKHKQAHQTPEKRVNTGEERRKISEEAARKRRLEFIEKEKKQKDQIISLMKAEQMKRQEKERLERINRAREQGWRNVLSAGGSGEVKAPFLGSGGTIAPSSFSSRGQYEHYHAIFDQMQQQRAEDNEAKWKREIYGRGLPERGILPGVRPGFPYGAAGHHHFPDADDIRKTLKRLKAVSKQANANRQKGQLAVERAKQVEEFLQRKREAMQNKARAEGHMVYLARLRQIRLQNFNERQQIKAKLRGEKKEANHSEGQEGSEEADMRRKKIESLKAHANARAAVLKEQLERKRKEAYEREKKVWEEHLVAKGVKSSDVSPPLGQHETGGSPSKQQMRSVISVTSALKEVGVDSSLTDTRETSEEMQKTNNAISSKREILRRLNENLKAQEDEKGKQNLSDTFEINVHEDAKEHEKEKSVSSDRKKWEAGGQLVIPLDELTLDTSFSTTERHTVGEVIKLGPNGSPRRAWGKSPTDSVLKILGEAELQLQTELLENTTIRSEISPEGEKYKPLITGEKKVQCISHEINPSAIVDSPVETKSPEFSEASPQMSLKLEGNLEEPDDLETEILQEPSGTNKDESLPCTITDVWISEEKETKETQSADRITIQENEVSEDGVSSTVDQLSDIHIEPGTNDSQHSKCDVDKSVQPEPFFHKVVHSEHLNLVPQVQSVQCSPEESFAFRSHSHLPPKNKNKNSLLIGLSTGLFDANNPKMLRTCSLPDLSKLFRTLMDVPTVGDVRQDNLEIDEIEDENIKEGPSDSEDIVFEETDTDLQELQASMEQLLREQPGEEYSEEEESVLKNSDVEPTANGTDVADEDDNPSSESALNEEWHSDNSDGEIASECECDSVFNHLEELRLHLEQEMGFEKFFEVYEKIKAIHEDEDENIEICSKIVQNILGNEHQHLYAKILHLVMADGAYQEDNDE

[4] = target: Activin receptor type-1-like (Homo sapiens) (UniProt P37023); conditions: Compound concentration 1000.0 nM
[5] = target: Tyrosine-protein kinase Fer (Homo sapiens) (UniProt P16591); conditions: Compound concentration 1000.0 nM
[6] = target: Proto-oncogene tyrosine-protein kinase receptor Ret (Homo sapiens) (UniProt P07949); conditions: Compound concentration 1000.0 nM
[7] = target: Ephrin type-B receptor 6 (Homo sapiens) (UniProt O15197); conditions: Compound concentration 1000.0 nM
[8] = target: Mitogen-activated protein kinase kinase kinase 15 (Homo sapiens) (UniProt Q6ZN16); conditions: Compound concentration 1000.0 nM
[9] = test system: Tyrosine-protein kinase ABL1 (Homo sapiens), P00519 [H396P]; conditions: Compound concentration 1000.0 nM
[10] = target: Delta-type opioid receptor (Homo sapiens) (UniProt P41143); conditions: Compound concentration 10.0 uM
[11] = target: Aurora kinase B (Homo sapiens) (UniProt Q96GD4); conditions: Compound concentration 1000.0 nM
[12] = target: Cyclin-dependent kinase 3 (Homo sapiens) (UniProt Q00526); conditions: Compound concentration 1000.0 nM
[13] = target: Protein-tyrosine kinase 2-beta (Homo sapiens) (UniProt Q14289); conditions: Compound concentration 1000.0 nM
[14] = target: SRSF protein kinase 1 (Homo sapiens) (UniProt Q96SB4); conditions: Compound concentration 1000.0 nM
[15] = target: Bone morphogenetic protein receptor type-1A (Homo sapiens) (UniProt P36894); conditions: Compound concentration 1000.0 nM
[16] = target: Ankyrin repeat and protein kinase domain-containing protein 1 (Homo sapiens) (UniProt Q8NFD2); conditions: Compound concentration 1000.0 nM
[17] = target: Serine/threonine-protein kinase Nek5 (Homo sapiens) (UniProt Q6P3R8); conditions: Compound concentration 1000.0 nM
[18] = test system: Tyrosine-protein kinase ABL1 (Homo sapiens), P00519 [T315I]; conditions: Compound concentration 1000.0 nM
[19] = target: High affinity nerve growth factor receptor (Homo sapiens) (UniProt P04629); conditions: Compound concentration 1000.0 nM
[20] = target: Ribosomal protein S6 kinase alpha-3 (Homo sapiens) (UniProt P51812); conditions: Compound concentration 1000.0 nM
[21] = test system: Serine/threonine-protein kinase B-raf (Homo sapiens), P15056 [V600E]; conditions: Compound concentration 1000.0 nM
Sequence of Serine/threonine-protein kinase B-raf (Homo sapiens), P15056 [V600E] (P15056 whole entry V600E): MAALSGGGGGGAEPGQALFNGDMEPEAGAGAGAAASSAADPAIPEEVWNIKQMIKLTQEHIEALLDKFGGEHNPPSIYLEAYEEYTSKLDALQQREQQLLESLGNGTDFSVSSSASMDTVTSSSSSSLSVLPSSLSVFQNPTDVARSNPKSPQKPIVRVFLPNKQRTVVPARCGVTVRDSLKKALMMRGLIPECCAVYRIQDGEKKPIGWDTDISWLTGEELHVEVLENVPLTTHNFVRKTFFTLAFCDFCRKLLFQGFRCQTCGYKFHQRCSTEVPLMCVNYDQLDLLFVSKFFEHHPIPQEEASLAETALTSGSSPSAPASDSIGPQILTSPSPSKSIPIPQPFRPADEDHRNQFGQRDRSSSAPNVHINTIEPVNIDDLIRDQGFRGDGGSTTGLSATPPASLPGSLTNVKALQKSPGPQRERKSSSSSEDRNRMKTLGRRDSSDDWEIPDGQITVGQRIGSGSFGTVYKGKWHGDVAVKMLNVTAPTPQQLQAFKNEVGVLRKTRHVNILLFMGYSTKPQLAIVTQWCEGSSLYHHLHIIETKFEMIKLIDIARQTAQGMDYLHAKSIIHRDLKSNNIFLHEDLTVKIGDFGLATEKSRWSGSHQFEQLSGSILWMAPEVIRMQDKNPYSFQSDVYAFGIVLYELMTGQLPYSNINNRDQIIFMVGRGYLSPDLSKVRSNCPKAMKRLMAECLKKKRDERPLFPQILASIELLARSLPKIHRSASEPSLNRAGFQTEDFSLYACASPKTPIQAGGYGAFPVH

Sequence of Ephrin type-B receptor 6 (Homo sapiens) (O15197 whole entry): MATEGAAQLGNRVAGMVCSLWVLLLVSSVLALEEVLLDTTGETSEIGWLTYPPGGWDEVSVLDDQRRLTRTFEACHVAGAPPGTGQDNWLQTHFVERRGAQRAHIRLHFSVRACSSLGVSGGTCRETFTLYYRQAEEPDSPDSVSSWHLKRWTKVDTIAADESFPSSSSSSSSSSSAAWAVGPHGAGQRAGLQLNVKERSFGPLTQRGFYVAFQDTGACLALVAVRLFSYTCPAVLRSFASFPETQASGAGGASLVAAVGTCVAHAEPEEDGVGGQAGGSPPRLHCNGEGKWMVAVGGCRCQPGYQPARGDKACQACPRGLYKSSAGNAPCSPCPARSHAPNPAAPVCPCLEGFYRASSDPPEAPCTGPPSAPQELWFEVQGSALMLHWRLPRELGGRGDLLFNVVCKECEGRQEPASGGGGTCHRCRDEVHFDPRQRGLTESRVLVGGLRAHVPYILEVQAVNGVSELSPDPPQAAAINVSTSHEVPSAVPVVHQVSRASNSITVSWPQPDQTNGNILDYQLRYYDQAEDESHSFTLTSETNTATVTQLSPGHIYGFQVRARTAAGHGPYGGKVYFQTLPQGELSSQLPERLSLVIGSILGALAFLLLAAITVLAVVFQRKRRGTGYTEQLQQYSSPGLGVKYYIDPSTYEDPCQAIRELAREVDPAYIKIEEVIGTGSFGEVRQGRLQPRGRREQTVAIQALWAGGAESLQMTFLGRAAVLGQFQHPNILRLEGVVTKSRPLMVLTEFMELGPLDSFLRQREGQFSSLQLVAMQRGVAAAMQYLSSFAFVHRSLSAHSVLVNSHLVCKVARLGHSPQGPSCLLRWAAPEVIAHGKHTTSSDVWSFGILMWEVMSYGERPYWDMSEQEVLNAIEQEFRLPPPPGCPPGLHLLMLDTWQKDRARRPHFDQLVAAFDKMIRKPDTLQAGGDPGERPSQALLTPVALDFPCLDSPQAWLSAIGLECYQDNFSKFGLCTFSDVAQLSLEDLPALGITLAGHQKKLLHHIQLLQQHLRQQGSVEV
Sequence of Cyclin-dependent kinase 3 (Homo sapiens) (Q00526 whole entry, looked up): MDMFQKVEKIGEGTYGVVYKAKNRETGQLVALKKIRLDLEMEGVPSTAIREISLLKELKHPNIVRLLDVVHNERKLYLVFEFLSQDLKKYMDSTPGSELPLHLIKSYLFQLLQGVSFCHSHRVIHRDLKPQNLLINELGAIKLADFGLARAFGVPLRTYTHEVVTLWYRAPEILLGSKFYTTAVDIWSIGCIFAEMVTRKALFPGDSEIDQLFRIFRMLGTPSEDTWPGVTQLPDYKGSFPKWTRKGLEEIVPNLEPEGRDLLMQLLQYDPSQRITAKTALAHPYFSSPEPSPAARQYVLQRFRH
Sequence of Bone morphogenetic protein receptor type-1A (Homo sapiens) (P36894 whole entry, the tested form may be a part): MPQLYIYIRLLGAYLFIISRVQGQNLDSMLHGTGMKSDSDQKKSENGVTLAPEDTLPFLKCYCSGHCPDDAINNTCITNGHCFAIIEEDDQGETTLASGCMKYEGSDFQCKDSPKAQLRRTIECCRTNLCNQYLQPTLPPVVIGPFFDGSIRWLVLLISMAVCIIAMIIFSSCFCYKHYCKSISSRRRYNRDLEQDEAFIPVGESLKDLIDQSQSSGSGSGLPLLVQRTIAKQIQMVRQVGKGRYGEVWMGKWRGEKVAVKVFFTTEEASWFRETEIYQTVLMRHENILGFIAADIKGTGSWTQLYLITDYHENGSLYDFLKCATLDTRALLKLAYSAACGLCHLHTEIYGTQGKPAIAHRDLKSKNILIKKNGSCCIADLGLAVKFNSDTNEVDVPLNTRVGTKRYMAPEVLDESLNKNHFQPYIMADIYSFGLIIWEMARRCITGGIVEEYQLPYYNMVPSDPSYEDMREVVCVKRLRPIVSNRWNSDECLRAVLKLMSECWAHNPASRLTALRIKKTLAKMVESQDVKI
Sequence of Delta-type opioid receptor (Homo sapiens) (P41143 whole entry): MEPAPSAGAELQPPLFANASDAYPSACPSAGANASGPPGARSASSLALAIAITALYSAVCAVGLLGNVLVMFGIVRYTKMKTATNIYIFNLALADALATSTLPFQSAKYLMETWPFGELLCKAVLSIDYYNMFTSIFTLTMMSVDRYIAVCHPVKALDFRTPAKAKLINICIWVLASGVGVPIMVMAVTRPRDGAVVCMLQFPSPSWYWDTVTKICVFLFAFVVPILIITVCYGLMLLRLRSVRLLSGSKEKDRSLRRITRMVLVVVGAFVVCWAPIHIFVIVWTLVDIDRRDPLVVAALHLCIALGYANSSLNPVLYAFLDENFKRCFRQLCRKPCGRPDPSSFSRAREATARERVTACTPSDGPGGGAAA
Sequence of Aurora kinase B (Homo sapiens) (Q96GD4 whole entry): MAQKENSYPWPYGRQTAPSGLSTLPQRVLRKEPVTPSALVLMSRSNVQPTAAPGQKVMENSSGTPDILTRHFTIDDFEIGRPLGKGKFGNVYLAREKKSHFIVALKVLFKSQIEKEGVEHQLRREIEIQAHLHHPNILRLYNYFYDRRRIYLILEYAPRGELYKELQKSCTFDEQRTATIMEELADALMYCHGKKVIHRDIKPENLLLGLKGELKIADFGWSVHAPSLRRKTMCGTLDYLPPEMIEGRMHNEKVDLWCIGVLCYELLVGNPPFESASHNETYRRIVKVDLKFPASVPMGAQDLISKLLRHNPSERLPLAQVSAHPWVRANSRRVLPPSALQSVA
Sequence of SRSF protein kinase 1 (Homo sapiens) (Q96SB4 whole entry): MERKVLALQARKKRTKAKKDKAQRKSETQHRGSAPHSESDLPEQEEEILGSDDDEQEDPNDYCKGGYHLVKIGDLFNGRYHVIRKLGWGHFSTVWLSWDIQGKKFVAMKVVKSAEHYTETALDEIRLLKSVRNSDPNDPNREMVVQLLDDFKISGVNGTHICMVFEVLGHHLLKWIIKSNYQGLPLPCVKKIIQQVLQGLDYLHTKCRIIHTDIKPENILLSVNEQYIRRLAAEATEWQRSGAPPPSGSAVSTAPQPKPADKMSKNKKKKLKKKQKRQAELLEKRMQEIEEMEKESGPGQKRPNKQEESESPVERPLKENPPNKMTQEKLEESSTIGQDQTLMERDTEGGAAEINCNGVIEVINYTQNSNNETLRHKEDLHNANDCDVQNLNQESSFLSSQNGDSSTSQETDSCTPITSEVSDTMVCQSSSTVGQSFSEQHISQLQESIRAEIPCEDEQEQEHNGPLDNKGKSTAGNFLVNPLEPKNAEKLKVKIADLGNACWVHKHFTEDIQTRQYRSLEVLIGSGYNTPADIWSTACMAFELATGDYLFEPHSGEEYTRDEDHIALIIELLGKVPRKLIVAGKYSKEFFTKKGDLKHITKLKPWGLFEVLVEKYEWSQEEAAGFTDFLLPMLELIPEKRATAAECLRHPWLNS
Sequence of Ankyrin repeat and protein kinase domain-containing protein 1 (Homo sapiens) (Q8NFD2 whole entry, the tested form may be a part): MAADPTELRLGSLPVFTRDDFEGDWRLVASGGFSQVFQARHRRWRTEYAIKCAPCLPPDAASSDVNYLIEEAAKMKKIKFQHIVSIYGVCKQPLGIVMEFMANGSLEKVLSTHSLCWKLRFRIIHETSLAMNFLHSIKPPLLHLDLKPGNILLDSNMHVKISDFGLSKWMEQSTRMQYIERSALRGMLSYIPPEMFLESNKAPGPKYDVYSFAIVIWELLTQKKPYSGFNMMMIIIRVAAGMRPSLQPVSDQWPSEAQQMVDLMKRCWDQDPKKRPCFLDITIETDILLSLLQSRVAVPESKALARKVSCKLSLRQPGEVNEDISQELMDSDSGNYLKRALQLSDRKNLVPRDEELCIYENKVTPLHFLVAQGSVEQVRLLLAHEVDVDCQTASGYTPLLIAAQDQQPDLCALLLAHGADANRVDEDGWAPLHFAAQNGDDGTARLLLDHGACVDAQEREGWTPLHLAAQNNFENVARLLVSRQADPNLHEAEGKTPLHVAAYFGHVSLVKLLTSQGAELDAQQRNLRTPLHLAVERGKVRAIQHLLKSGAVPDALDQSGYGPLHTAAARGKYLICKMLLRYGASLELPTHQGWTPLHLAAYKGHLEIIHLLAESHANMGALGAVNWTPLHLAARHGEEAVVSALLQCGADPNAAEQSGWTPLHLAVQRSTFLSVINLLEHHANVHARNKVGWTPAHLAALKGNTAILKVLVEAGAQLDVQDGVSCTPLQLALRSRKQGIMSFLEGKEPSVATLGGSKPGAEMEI

| SMILES | residual activity [1] | residual activity [2] | residual activity [3] | residual activity [4] | residual activity [5] | residual activity [6] | residual activity [7] | residual activity [8] | residual activity [9] | inhibition [10] | residual activity [11] | residual activity [12] | residual activity [13] | residual activity [14] | residual activity [15] | residual activity [16] | residual activity [17] | residual activity [18] | residual activity [19] | residual activity [20] | also measured |
| --- | --- | --- | --- | --- | --- | --- | --- | --- | --- | --- | --- | --- | --- | --- | --- | --- | --- | --- | --- | --- | --- |
| CN1CCN(c2cnc3c(C4CCN(C(=O)c5ccc(OC(F)(F)F)cc5N)CC4)ncnc3c2)CC1 [BAY-885] | 86% | 100% | 85% | 94% | 100% | 100% | 18% | 95% | 100% | 0.94% | 90% | 100% | 100% | 88% | 79% | 98% | 100% | 100% | 100% | 80% | residual activity [21]: 100% |
| Cc1nc(C2CCN(C(=O)c3ccc(OC(F)(F)F)cc3N)CC2)c2ncc(N3CCN(C)CC3)cc2n1 [BAY-693] | 92% | 100% | 97% | 91% | 99% | 100% | 100% | 92% | 89% | 4.34% | 88% | 100% | 100% | 79% | 80% | 81% | 100% | 89% | 85% | 82% | residual activity [21]: 100% |
